# Assay results reported in US20200046648A1, “POLYMERIC NANOPARTICLES COMPRISING SALINOMYCIN” (priority 2018, published 2020).
# “Also recorded” adds a separate entry of the source.
# Tests used:
# CD44+/CD24low cells = test: Flow cytometric identification of cancer stem cells from a TNBC patient; type: cell-based; conditions: TNBC patient tumor derived spheroid cultures; 72 hours; FACS
# Description: Flow cytometric identification of cancer stem cells (CSCs) by CD24-PE & CD44-FITC antibody staining in triple negative breast cancer (TNBC) patient tumor derived cells cultured as spheroid cultures and then treated with the indicated drugs for72h. Following 72 hours of treatment of the mammospheres, cells were dissociated with Acutase treatment. Following washing, cells were stained with CD24-PE & CD44-FITC antibody, washed and analyzed by FACS. The subpopulation of CD44+/CD24-low cells were gated and quantified.
# [1] = Preliminary toxicity study, histopathology by H & E staining; type: in vivo, CD2 male mice
# Description: (§1) A study was conducted in wild-type CD2 male mice to evaluate and compare the effects of salinomycin (SAL) at three different concentrations and compared to a formulation of SAL in biodegradable tetra-block polymeric nanoparticles.
# (§2) MICE 20-25 g male CD2 mice between the ages 6 to 8 weeks from Taconic were used. The animals were acclimatized for five days before initiating the study.
# (§3) Animals were injected intravenously either with 5.0 mg/kg, 8.5 mg/kg, or 12.5 mg/kg of SAL or SAL-NPs once, according to Table 1 below. Control animals were treated with PBS.
# (§4) Tolerability of the drug by animals was measured via clinical, weight and behavioral changes. The compounds were administered once on day 1. Seven days following administration, all animals were euthanized and blood was collected for a complete blood chemistry and hematology analysis (see Table 2 and 3 below). Post mortem was conducted to examine all of the animals. Different organs (brain, heart, lung, liver, spleen, stomach, intestine, kidney, and skin) were also isolated for histo-pathological evaluation by H & E staining.
# All the animals did well in the study, except the Salinomycin 12.5 mg/kg group. The histopathological studies were conducted on brain, heart, lung, liver, spleen, stomach, intestine, kidney, muscles, and skin tissues by H & E staining. […]
# [2] = Preliminary toxicity study, post mortem observations; type: in vivo, CD2 male mice; conditions: day 7
# Description: as §1, §2, §3, §4
# On day 7 of the study, a post mortem inspection was conducted on each and every animal. […] There was slight enlargement observed on the fascia around the testis.
# [3] = Comparative toxicity in wild-type mice; type: in vivo
# Description: The effect of nanoparticles in mitigating the toxicity of salinomycin was examined in wild-type mice. Different doses of salinomycin alone (5, 7.5, 10, 12.5 and 15 mg/kg) or salinomycin-nanoparticles (SAL-NP) (5, 7.5, 10, 12.5 and 15 mg/kg) were injected into wild-type mice. Three mice were used in each group of salinomycin alone and salinomycin-NP groups, body weights, food and water uptake were measured every day for 22 days.
SMILES,effect on CD44+/CD24low cells (CD44+/CD24low cells),"organ toxicity (conclusion) ([1]; 5, 8.5, 12.5 mg/kg i.v. once, day 7)","microscopical examination of all the tissues ([1]; mouse, in vivo)",Post-mortem findings ([2]; 5 mg/kg i.v. once),Post-mortem findings ([2]; 8.5 mg/kg i.v. once),Post-mortem findings ([2]; 12.5 mg/kg i.v. once),survival ([3]; 10 mg/kg),survival ([3]; 12.5 mg/kg),survival (day of the study) ([3]; 15 mg/kg)
CC(=O)O[C@H]1C(=O)[C@@]2(C)[C@H]([C@H](OC(=O)c3ccccc3)[C@]3(O)C[C@H](OC(=O)[C@H](O)[C@@H](NC(=O)c4ccccc4)c4ccccc4)C(C)=C1C3(C)C)[C@]1(OC(C)=O)CO[C@@H]1C[C@@H]2O [Paclitaxel],not much effect,,,,,,,,
"CC[C@@H](C(=O)[C@@H](C)[C@@H](O)[C@H](C)[C@@H]1O[C@@H]([C@@H](CC)C(=O)O)CC[C@@H]1C)[C@H]1O[C@]2(C=C[C@@H](O)[C@]3(CC[C@@](C)([C@H]4CC[C@](O)(CC)[C@H](C)O4)O3)O2)[C@H](C)C[C@@H]1C [SAL, salinomycin]",,"toxicity to the liver, kidney, testis, and epididymis","changes were observed in the kidney, liver, testis and epididymis",did not show any observable changes; also recorded: No Changes observed,slightly reddish and slightly enlarged testis; also recorded: testis with redness; also recorded: No Changes observed,reddening of the fascia surrounding testis; also recorded: Epidydimus enalrged,five,three,died after day 3
